This is an account of results in patent publication US20180228145A1, “ABSORBENT BINDER COMPOSITION” (Kimberly-Clark Worldwide, Inc., priority 2015, published 2018).

The test system of the assay is E. coli. Put plainly: Kirby-Bauer Zone of Inhibition test (AATCC 147-1998), impregnated test wafers on agar plate. It counts as cell-based. The settings on record: 50 ml FAB, 1.1 g calcium chloride plus antimicrobial agent; impregnated wafer. How it is done: A variety of absorbent binder compositions were formulated to contain the FAB superabsorbent polymer material, calcium chloride, and an antimicrobial agent. The absorbent binder composition contained 50 ml FAB and 1.1 g (10 mmole) calcium chloride, and the antimicrobial agent as noted in Table 2 below. The absorbent binder compositions were then analyzed according to the Kirby-Bauer Antibiotic test method which is a Zone of Inhibition test method (This test method is also known by the American Association of Textile Chemists and Colorists (AATCC) as test method 147-1998.). In this example, the antimicrobial agents incorporated into an absorbent binder composition were Benzalkonium chloride, hydrogen peroxide, and a combination of the Benzalkonium chloride and hydrogen peroxide. According to the test method, the absorbent binder compositions were then brought into contact with test wafers to impregnate the test wafers with the absorbent binder compositions. The absorbent binder composition-impregnated test wafers were then brought into contact with various pathogenic bacteria on an agar plate and the agar plates were then left to incubate according to the test method. Following incubation, the distance between the wafers and the growth of bacteria was measured.

On to `CN[C@H](CC(C)C)C(=O)N[C@H]1C(=O)N[C@@H](CC(N)=O)C(=O)N[C@H]2C(=O)N[C@H]3C(=O)N[C@H](C(=O)N[C@H](C(=O)O)c4cc(O)cc(O)c4-c4cc3ccc4O)[C@H](O)c3ccc(c(Cl)c3)Oc3cc2cc(c3O[C@@H]2O[C@H](CO)[C@@H](O)[C@H](O)[C@H]2O[C@H]2C[C@](C)(N)[C@H](O)[C@H](C)O2)Oc2ccc(cc2Cl)[C@H]1O` [vancomycin wafer, vancomycin], for which the “E. coli Zone of Inhibition” value came out at 1.9 cm.
